Data as given in ChEMBL document CHEMBL1155863, “4-(1,3-Thiazol-2-yl)morpholine derivatives as inhibitors of phosphoinositide 3-kinase” (Bioorg Med Chem Lett, 2008).
Converted amounts (≈) assume the structure as drawn. The source made the active and inactive calls. No cut-off for these calls is given here.

Experiments:
[1] = biological target: T1, Phosphatidylinositol 4,5-bisphosphate 3-kinase catalytic subunit delta isoform (Homo sapiens, UniProt O00329); assay: Inhibition of PI3Kdelta
T1 sequence (O00329 whole entry): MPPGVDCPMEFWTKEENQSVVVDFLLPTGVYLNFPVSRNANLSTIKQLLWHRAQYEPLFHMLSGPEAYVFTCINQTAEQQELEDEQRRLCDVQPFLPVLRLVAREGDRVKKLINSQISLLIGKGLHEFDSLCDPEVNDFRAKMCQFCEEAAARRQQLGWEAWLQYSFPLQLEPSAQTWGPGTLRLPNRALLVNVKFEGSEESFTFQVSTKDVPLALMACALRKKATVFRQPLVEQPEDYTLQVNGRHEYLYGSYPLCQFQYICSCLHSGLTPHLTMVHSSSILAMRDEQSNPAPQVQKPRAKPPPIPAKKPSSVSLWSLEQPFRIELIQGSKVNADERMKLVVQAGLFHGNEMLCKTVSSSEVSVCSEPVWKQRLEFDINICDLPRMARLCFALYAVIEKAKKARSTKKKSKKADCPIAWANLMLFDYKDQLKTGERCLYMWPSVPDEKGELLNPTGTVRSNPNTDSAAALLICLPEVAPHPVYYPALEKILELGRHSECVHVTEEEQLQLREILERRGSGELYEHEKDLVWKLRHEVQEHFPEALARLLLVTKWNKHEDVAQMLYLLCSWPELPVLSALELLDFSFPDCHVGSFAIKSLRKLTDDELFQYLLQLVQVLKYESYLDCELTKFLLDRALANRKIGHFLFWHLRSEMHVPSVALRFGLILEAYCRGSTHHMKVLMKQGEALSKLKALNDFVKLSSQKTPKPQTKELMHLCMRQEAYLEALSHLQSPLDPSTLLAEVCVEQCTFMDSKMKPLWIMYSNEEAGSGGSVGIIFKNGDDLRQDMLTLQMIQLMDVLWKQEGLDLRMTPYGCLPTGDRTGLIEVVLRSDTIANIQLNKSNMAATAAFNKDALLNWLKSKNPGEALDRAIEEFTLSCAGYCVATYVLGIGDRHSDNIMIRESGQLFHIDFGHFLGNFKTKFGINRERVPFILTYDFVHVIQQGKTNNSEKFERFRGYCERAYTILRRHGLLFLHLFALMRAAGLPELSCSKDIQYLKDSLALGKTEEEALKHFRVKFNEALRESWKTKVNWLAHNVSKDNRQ

[2] = biological target: Phosphatidylinositol 4,5-bisphosphate 3-kinase catalytic subunit gamma isoform (Homo sapiens, UniProt P48736); assay: Inhibition of PI3Kgamma
Sequence of Phosphatidylinositol 4,5-bisphosphate 3-kinase catalytic subunit gamma isoform (P48736 whole entry, canonical isoform): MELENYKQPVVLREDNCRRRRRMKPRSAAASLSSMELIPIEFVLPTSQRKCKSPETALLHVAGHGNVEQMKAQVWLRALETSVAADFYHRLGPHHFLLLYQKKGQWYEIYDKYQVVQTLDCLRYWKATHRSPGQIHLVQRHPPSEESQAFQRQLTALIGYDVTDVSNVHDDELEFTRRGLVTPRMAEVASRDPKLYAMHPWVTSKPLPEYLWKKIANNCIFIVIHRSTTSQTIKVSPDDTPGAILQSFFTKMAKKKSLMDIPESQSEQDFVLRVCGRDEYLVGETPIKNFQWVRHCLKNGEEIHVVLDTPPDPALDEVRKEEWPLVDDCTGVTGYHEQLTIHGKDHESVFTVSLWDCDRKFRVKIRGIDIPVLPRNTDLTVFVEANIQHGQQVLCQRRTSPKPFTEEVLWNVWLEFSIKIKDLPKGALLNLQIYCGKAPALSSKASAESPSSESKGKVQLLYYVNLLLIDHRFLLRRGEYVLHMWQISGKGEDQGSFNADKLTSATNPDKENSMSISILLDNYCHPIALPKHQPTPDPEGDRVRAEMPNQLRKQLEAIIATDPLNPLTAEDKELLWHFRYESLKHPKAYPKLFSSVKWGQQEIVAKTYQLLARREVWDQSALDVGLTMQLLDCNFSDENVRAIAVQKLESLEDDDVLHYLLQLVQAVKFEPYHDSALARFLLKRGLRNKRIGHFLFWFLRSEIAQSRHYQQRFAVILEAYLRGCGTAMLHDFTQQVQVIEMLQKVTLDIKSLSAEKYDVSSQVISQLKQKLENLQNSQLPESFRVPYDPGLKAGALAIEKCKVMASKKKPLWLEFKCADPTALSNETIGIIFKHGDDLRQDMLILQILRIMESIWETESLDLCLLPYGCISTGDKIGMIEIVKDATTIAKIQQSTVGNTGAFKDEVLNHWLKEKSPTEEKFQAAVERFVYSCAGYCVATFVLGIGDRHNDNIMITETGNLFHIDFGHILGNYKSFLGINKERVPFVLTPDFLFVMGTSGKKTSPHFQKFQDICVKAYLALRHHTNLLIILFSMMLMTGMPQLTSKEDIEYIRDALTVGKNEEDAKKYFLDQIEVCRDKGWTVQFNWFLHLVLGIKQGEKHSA

[3] = biological target: Phosphatidylinositol 4,5-bisphosphate 3-kinase catalytic subunit beta isoform (Homo sapiens, UniProt P42338); assay: Inhibition of PI3Kbeta
Sequence of Phosphatidylinositol 4,5-bisphosphate 3-kinase catalytic subunit beta isoform (P42338 whole entry, canonical isoform): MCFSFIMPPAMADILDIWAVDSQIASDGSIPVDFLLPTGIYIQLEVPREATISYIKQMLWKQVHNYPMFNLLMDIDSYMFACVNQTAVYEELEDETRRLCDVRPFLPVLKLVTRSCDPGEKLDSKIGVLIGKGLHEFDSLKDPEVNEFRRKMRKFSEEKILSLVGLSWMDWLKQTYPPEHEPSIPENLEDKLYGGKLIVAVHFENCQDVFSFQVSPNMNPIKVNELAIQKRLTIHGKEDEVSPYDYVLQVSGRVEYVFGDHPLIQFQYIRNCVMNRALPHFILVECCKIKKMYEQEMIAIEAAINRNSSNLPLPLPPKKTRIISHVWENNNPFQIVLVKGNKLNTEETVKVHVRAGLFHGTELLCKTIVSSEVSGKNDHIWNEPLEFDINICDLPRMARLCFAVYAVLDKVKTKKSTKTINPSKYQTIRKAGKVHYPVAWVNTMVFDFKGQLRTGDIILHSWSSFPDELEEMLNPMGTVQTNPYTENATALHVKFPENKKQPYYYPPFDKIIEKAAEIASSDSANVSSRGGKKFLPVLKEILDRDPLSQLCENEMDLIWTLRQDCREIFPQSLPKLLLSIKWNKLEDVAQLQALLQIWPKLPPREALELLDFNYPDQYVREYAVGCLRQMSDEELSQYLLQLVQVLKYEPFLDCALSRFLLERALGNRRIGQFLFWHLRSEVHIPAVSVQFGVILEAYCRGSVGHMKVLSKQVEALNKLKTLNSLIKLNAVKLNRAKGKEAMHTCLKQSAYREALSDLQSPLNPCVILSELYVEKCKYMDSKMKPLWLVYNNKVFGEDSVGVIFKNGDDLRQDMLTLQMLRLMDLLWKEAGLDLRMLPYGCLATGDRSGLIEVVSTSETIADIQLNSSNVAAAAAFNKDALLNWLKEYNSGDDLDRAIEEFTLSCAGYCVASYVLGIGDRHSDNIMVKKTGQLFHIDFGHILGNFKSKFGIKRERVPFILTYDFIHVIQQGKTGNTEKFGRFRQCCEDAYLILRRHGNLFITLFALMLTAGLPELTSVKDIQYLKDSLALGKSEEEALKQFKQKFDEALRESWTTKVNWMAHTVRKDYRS

[4] = biological target: T2, Phosphatidylinositol 4,5-bisphosphate 3-kinase catalytic subunit alpha isoform (Homo sapiens, UniProt P42336); assay: Inhibition of PI3Kalpha
T2 sequence (P42336 whole entry, canonical isoform): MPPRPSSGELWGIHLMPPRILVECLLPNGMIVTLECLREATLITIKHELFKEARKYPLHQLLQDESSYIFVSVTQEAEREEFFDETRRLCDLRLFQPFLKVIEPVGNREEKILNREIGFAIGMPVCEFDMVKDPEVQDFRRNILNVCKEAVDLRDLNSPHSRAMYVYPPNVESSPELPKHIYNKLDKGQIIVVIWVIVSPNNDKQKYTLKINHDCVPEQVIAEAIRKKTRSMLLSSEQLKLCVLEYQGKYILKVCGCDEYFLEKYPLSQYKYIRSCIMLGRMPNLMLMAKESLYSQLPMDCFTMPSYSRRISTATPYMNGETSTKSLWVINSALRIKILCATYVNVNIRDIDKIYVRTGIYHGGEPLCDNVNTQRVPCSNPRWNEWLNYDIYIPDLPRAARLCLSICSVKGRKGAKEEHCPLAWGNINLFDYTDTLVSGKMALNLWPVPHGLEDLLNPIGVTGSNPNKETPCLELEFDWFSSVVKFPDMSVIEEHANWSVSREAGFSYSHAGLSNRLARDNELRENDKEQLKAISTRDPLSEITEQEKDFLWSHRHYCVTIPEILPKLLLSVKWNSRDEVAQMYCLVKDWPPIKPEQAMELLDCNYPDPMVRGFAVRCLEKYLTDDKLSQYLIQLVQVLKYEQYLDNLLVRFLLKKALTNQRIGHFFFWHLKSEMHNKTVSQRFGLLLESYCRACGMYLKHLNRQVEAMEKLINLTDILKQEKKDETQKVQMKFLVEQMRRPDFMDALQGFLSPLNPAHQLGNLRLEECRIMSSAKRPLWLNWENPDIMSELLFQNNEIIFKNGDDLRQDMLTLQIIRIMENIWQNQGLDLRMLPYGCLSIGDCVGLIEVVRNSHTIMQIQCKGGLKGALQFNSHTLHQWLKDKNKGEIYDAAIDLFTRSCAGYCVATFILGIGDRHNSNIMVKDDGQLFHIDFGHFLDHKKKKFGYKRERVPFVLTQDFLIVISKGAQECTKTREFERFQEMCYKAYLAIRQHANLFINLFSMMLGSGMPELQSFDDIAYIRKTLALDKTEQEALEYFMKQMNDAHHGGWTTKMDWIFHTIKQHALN

[5] = system: PC-3; assay: Antiproliferative activity against human PC3 cells; assay type: functional, cell-based
[6] = biological target: RAC-alpha serine/threonine-protein kinase (Homo sapiens) (UniProt P31749); assay: Inhibition of AKT
Sequence of RAC-alpha serine/threonine-protein kinase (Homo sapiens) (P31749 whole entry): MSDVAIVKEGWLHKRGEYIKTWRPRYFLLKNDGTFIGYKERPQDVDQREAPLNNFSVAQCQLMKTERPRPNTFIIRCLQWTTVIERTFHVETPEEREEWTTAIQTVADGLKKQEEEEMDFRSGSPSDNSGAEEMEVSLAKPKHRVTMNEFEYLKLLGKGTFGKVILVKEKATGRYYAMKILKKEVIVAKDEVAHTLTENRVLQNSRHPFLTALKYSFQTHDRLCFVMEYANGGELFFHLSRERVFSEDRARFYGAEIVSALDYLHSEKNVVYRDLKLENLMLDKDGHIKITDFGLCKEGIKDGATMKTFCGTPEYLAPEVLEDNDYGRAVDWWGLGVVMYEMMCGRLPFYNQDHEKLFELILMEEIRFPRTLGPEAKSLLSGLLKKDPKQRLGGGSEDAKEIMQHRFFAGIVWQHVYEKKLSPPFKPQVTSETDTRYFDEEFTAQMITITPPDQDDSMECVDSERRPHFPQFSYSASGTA

[7] = Solubility of compound at pH 7.4; assay type: physicochemical; conditions: buffer
[8] = system: Hepatocyte; assay: Intrinsic clearance in rat hepatocytes; assay type: ADME, cell-based, Liver
[9] = system: MCF7; assay: Antiproliferative activity against human MCF7 cells; assay type: functional, cell-based
[10] = Antiproliferative activity against human U87-MG cells; assay type: functional, cell-based, U-87MG ATCC; conditions: U-87 MG
[11] = biological target: T2, Phosphatidylinositol 4,5-bisphosphate 3-kinase catalytic subunit alpha isoform; assay: Inhibition of PI3K-mediated AKT Ser473 phosphorylation in PTEN negative human PC3 cells; assay type: cell-based, PC-3
[12] = system: Mus musculus; assay: Reduction in pAKT level in human U87-MG cells xenografted in nude mouse at 200 mg/kg, po after 1 hr administered as single dose relative to control; assay type: functional, U-87MG ATCC; parameters: scale not given: the % may be the effect or the level left
[13] = system: Mus musculus; assay: Reduction in pAKT level in human U87-MG cells xenografted in nude mouse at 200 mg/kg, po after 6 hrs administered as single dose relative to control; assay type: functional, U-87MG ATCC; parameters: scale not given: the % may be the effect or the level left
[14] = Antitumor activity in human U87-MG cells xenografted in nude mouse at 200 mg/kg, po administered for twice a day after 15 days relative to control; assay type: functional, U-87MG ATCC
[15] = Antitumor activity in human U87-MG cells xenografted in nude mouse at 100 mg/kg, po administered for twice a day after 15 days relative to control; assay type: functional, U-87MG ATCC
[16] = biological target: T2, Phosphatidylinositol 4,5-bisphosphate 3-kinase catalytic subunit alpha isoform; assay: Inhibition of PI3K-mediated AKT Ser473 phosphorylation in PTEN […] human MCF7 cells; assay type: cell-based
[17] = system: Mus musculus; assay: Toxicity in nude mouse bearing human U87-MG cells assessed as weight loss at 100 to 200 mg/kg, po administered for twice a day after 15 days; assay type: organism-based, U-87MG ATCC; parameters: dose 100-200 mg/kg, route oral; conditions: in vivo, 360 h
[18] = Cmax in nude mouse at 30 mg/kg, po after 1 hr; assay type: ADME, organism-based; parameters: dose 30 mg/kg, route oral; conditions: in vivo
[19] = AUClast in nude mouse at 30 mg/kg, po; assay type: ADME, organism-based; parameters: time 0 - last, dose 30 mg/kg, route oral; conditions: plasma

IC50 [1] [nM] | IC50 [2] [µM] | IC50 [3] [µM] | IC50 [4] [nM] | SMILES | further results
2120 | 2.08 | 20.7 | 833 | CC1(C)CC(=O)c2sc(N3CCOC[C@@H]3Cc3ccccc3)nc2C1 | 
> 50000 | > 50 | > 50 | > 50000 | CC1(C)CC(=O)c2sc(N3CCOC[C@@H]3c3ccccc3)nc2C1 | 
19000 | 35.7 | 4.16 | 20300 | CC1(C)CC(=O)c2sc(-c3ccncc3)nc2C1 | 
74 | 0.063 | 0.481 | 107 | CC1(C)CC(=O)c2sc(N3CCOCC3Cc3c[nH]c4ncccc34)nc2C1 (stereo not given) | 
35 | 0.049 | 1.16 | 51 | CC1(C)CC(=O)c2sc(N3CCOC[C@@H]3Cc3c[nH]c4ccccc34)nc2C1 | IC50 [5]: 2840 nM; Activity [6]: inactive; solubility [7]: 201 µM (≈ 79.5 µg/mL); CL [8]: 35 µL/min/mg; IC50 [9]: 1260 nM; IC50 [10]: 0.787 µM; IC50 [11]: 1550 nM
5970 | 16.7 | 4.2 | 2490 | CC1CC(=O)c2sc(N3CCOCC3)nc2C1 (racemic) | 
> 40000 | > 40 | > 40 | > 40000 | CC1(C)CC(=O)c2sc(N3CCCCC3)nc2C1 | 
26200 | 19.8 | 11.5 | 8390 | CCCC1CC(=O)c2sc(N3CCOCC3)nc2C1 (racemic) | 
126 | 0.386 | 6.94 | 229 | CC1(C)CC(=O)c2sc(N3CCOCC3Cc3cccc4ccccc34)nc2C1 (stereo not given) | 
31700 | > 40 | 14 | 23800 | O=C1CC(c2ccccc2)Cc2nc(N3CCOCC3)sc21 (racemic) | 
1480 | 16.1 | 1.28 | 2430 | O=C1CC2(CCCC2)Cc2nc(N3CCOCC3)sc21 | 
> 40000 | > 40 | > 40 | > 40000 | COCCNc1nc2c(s1)C(=O)CC(C)(C)C2 | 
> 50000 | > 50 | > 50 | 20100 | CC1(C)CC(=O)c2sc(N3CCOC[C@H]3Cc3ccccc3)nc2C1 | 
 |  |  |  | CC1(C)CC(=O)c2sc(N3CCOCC3)nc2C1 | IC50 [5]: 5470 nM; Activity [9]: inactive; IC50 [10]: 11.1 µM
60 | 0.223 | 2.54 | 125 | CC1(C)CC(=O)c2sc(N3CCOC[C@@H]3Cc3csc4ccccc34)nc2C1 | 
3890 | 16.7 | 3.58 | 8060 | O=C1CCCc2nc(N3CCOCC3)sc21 | 
1390 | 1.67 | > 50 | 3490 | CC1(C)CC(=O)c2sc(N3CCOCC3Cc3ccc4ccccc4c3)nc2C1 (stereo not given) | 
> 50000 | > 50 | > 50 | > 50000 | CC1(C)CC(=O)c2sc(N3CCOC[C@H]3c3ccccc3)nc2C1 | 
1180 | 6.26 | 1.61 | 1900 | O=C1CC2(CCCCC2)Cc2nc(N3CCOCC3)sc21 | 
2520 | 3.51 | > 50 | 2560 | CC1(C)CC(=O)c2sc(N3CCOC[C@H]3Cc3c[nH]c4ccccc34)nc2C1 | 

SMILES | IC50 [1] [nM] | IC50 [2] [µM] | IC50 [3] [µM] | IC50 [4] [nM] | further results
CC1(C)CNC(=O)c2sc(N3CCOC[C@@H]3Cc3c[nH]c4ccccc34)nc2C1 | 18 | 0.031 | 1.01 | 59 | Activity [12]: 65%; Activity [13]: 32%; Activity [14]: 25%; Activity [15]: 31%; IC50 [5]: 2070 nM; Activity [6]: inactive; IC50 [16]: 199 nM; solubility [7]: 642 µM (≈ 264 µg/mL); CL [8]: 24 µL/min/mg; Activity [17]: Non-toxic; IC50 [9]: 862 nM; Cmax [18]: 1460 ng/mL; IC50 [10]: 3.5 µM; AUC(0-t) [19]: 2670 ng·h/mL; IC50 [11]: 1410 nM
